In ChEMBL document CHEMBL4339231, “α,γ-Diketocarboxylic Acids and Their Esters Act as Carbonic Anhydrase IX and XII Selective Inhibitors” (ACS Med Chem Lett, 2019):
Calls of active or inactive are those of the source. The rule behind the calls is not given here.

What was measured:
Carbonic anhydrase 1 = Carbonic anhydrase 1 (Homo sapiens, UniProt P00915); assay: Inhibition of human carbonic anhydrase 1 incubated for 15 mins by stopped flow CO2 hydrase assay
Carbonic anhydrase 2 = Carbonic anhydrase 2 (Homo sapiens, UniProt P00918); assay: Inhibition of human carbonic anhydrase 2 incubated for 15 mins by stopped flow CO2 hydrase assay
Carbonic anhydrase 9 = Carbonic anhydrase 9 (Homo sapiens, UniProt Q16790); assay: Inhibition of human carbonic anhydrase 9 incubated for 15 mins by stopped flow CO2 hydrase assay
MG-63 [1] = assay: Cytotoxicity in human MG63 cells assessed as reduction in cell viability at 12.5 to 100 uM incubated for 72 hrs by acid phosphatase assay; assay type: functional, cell-based
HOS [2] = assay: Cytotoxicity in human HOS cells assessed as reduction in cell viability at 12.5 to 100 uM incubated for 72 hrs by acid phosphatase assay; assay type: functional, cell-based
MG-63 [3] = assay: Cytotoxicity in human MG63 cells assessed as reduction in cell viability at 50 uM incubated for 72 hrs by acid phosphatase assay; assay type: functional
HOS [4] = assay: Cytotoxicity in human HOS cells assessed as reduction in cell viability at 50 uM incubated for 72 hrs by acid phosphatase assay; assay type: functional
MG-63 [5] = assay: Antiproliferative activity against human MG63 cells assessed as reduction in cell viability incubated for 72 hrs by erythrosine B dye vital staining assay; assay type: functional, cell-based; conditions: MG-63, 72 h
HOS [6] = assay: Antiproliferative activity against human HOS cells assessed as reduction in cell viability incubated for 72 hrs by erythrosine B dye vital staining assay; assay type: functional, cell-based
MG-63 [7] = assay: Induction of apoptosis in human MG63 cells assessed as increase in caspase-3 activation at 50 uM incubated for 72 hrs by Caspase-GloR 3/7 assay; assay type: functional, cell-based
MG-63 [8] = assay: Induction of apoptosis in human MG63 cells assessed as increase in caspase-7 activation at 50 uM incubated for 72 hrs by Caspase-GloR 3/7 assay; assay type: functional, cell-based
HOS [9] = assay: Induction of apoptosis in human HOS cells assessed as increase in caspase-3 activation at 50 uM incubated for 72 hrs by Caspase-GloR 3/7 assay; assay type: functional, cell-based
HOS [10] = assay: Induction of apoptosis in human HOS cells assessed as increase in caspase-7 activation at 50 uM incubated for 72 hrs by Caspase-GloR 3/7 assay; assay type: functional, cell-based
MG-63 [11] = assay: Cytotoxicity in human MG63 cells assessed as reduction in cell viability at 25 uM incubated for 72 hrs by acid phosphatase assay; assay type: functional
HOS [12] = assay: Cytotoxicity in human HOS cells assessed as reduction in cell viability at 25 uM incubated for 72 hrs by acid phosphatase assay; assay type: functional
MG-63 [13] = assay: Induction of apoptosis in human MG63 cells assessed as increase in caspase-3 activation at 25 uM incubated for 72 hrs by Caspase-GloR 3/7 assay; assay type: functional, cell-based
HOS [14] = assay: Induction of apoptosis in human HOS cells assessed as increase in caspase-3 activation at 25 uM incubated for 72 hrs by Caspase-GloR 3/7 assay; assay type: functional, cell-based
MG-63 [15] = assay: Induction of apoptosis in human MG63 cells assessed as increase in caspase-7 activation at 25 uM incubated for 72 hrs by Caspase-GloR 3/7 assay; assay type: functional, cell-based
HOS [16] = assay: Induction of apoptosis in human HOS cells assessed as increase in caspase-7 activation at 25 uM incubated for 72 hrs by Caspase-GloR 3/7 assay; assay type: functional, cell-based

Sequence of Carbonic anhydrase 1 (P00915 whole entry): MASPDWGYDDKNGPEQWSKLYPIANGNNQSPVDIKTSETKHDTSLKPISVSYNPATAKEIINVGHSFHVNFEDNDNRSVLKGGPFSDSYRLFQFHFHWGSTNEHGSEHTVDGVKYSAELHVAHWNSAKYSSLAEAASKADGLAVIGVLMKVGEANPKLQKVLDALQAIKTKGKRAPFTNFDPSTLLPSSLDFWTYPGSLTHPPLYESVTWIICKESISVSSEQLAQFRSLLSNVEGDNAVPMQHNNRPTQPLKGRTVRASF

| SMILES | Ki (Carbonic anhydrase 1) | Ki (Carbonic anhydrase 2) | Ki (Carbonic anhydrase 9) | Activity (MG-63 [1]) | Activity (HOS [2]) | Activity (MG-63 [3]) | Activity (HOS [4]) | IC50 (MG-63 [5]) | IC50 (HOS [6]) | Activity (MG-63 [7]) | Activity (MG-63 [8]) | Activity (HOS [9]) | Activity (HOS [10]) | Activity (MG-63 [11]) | Activity (HOS [12]) | Activity (MG-63 [13]) | Activity (HOS [14]) | Activity (MG-63 [15]) | Activity (HOS [16]) |
| --- | --- | --- | --- | --- | --- | --- | --- | --- | --- | --- | --- | --- | --- | --- | --- | --- | --- | --- | --- |
| CCOC(=O)/C(O)=C/C(=O)/C=C/c1ccc(NC(=O)c2ccc3ccccc3c2)cc1 | 6.18 µM | 9.44 µM | 12.6 nM | Dose-dependent effect | Dose-dependent effect | 50% | 50% | 45.8 µM | 19.2 µM | inactive | inactive | inactive | inactive |  |  |  |  |  |  |
| CCOC(=O)/C(O)=C/C(=O)/C=C/c1ccc(NC(=O)c2cccc3ccccc23)cc1 | > 10 µM | 8.65 µM | 37.9 nM | Dose-dependent effect | Dose-dependent effect |  |  | 14.7 µM | 15.6 µM |  |  |  |  | 16.4% | 19.7% | inactive | inactive | inactive | inactive |
| CCOC(=O)/C(O)=C/C(=O)/C=C/c1ccc(NC(=O)c2ccccc2)cc1 | 7.33 µM | > 10 µM | 90.2 nM |  |  |  |  |  |  |  |  |  |  |  |  |  |  |  |  |
| O=C(/C=C(\O)C(=O)O)/C=C/c1ccc(NC(=O)c2ccccc2)cc1 | > 10 µM | 5.03 µM | 12.5 nM |  |  |  |  |  |  |  |  |  |  |  |  |  |  |  |  |
| O=C(/C=C(\O)C(=O)O)/C=C/c1ccc(NC(=O)c2cccc3ccccc23)cc1 | > 10 µM | 2.58 µM | 12.8 nM |  |  |  |  |  |  |  |  |  |  |  |  |  |  |  |  |
| O=C(/C=C(\O)C(=O)O)/C=C/c1ccc(NC(=O)c2ccc3ccccc3c2)cc1 | 8.98 µM | 2.08 µM | 11.3 nM | inactive | inactive |  |  |  |  |  |  |  |  |  |  |  |  |  |  |
